Read-outs that look alike come from different tables or passages of the source. Where only a bound is given, the exact number is not on record here.

The nature of data set [1]: Plasma drug concentrations and pharmacokinetic analyses. The settings on record: for concentration at 14 days: human, in vivo. It is filed as in vivo, human. On the procedure: The blood samples were immediately centrifuged, and the plasma was subsequently stored at −80° C. until analysis.
This allows to determine the concentrations of unconjugated psilocin and of psilocin glucuronide which corresponds to the difference between samples that were incubated with and without glucuronidase.

Data set [2] concerns healthy subjects. Kind of data set: Autonomic measures (blood pressure, heart rate, body temperature, pupil size). Here is the method: Study design: A double-blind, cross-over design was used with two conditions. […] 2) Pretreatment with placebo for 14 days with the last administration on the study day and administration of 25 mg psilocybin 2 hours later. Treatment order was random and counterbalanced. Between the 14 days pretreatment and the study day, there were at least 2 days washout until the next pretreatment phase began.
Autonomic measures: Blood pressure, heart rate, and body temperature were recorded at baseline and repeatedly throughout the session. Blood pressure (systolic and diastolic) and heart rate were measured with an automatic oscillometric device. Body temperature was measured with an ear thermometer as previously described in detail (Hysek et al., 2010). Measures were taken before and at 0, 0.25, 0.5, 0.75, 1, 1.5, 2, 2.5, 3, 4, 5, 6 and 7 hours after psilocybin administration.
Data analysis: Peak (Emax and/or Emin) or peak change from baseline (ΔEmax) values were determined for repeated measures. The values were then analyzed using paired T-tests using Statistica 12 software (StatSoft, Tulsa, OK, USA). The criterion for significance was p<0.05.

Data set [3] concerns healthy subjects. Kind of data set: Subjective effects, visual analog scales (VAS), clinical study. The class given is in vivo, human. Here is the method:
Treatment order was random and counterbalanced.
Study procedures: Subjects took part in a 2-hour screening session, two 9.5-hour test sessions where the psilocybin was administered and a 1-hour end-of-study visit. The subjects were informed about the study both verbally and by the approved written consent form regarding the altered state of consciousness, the study procedures and associated risks. The investigator and the subject both personally signed and dated the consent form as confirmation of consent. Subjects were screened using a semi-structured clinical interview for DSM-IV (Diagnostic and Statistical Manual Version 4) (Wittchen et al., 1997) to exclude those with a personal or family (first-degree relative) axis I major psychiatric disorder (acute or past) or a history of illicit drug dependence. Axis I major psychiatric disorders included also addiction disorders. The sessions were conducted in a calm standard hospital room. Only one research subject and one investigator were present during the test sessions. The test sessions began at 9 AM. The subjects then underwent baseline measurements. […] Psilocybin was administered at 11:00 AM. The outcome measures were repeatedly assessed for 7 hours. The subjects were under constant supervision by an investigator until 6 PM. Thus, the subjects were never alone during the 7 hours after drug administration. The subjects were sent home at 6:30 PM.
Subjective Effects Questionnaire (Visual Analog Scales, VAS): VAS was repeatedly used to assess subjective alterations in consciousness over time. Single scales were presented as 100 mm horizontal lines marked with “not at all” on the left and “extremely” on the right. The following VAS items were used: “any drug effect”, “good drug effect”, “bad drug effect”, “drug liking”, “drug high”, “stimulated”, “fear”, “happy”, “content”, “trust”, “talkative”, “perception of time”, “open”, “concentration”, “speed of thinking”, “feeling close to others”, “wanting to be hugged”, “wanting to hug someone”, “desire to be alone”, “desire to be with others”, and “ego dissolution”. The VASs were presented as 100-mm horizontal lines (0-100%), marked from “not at all” on the left to “extremely” on the right. Some VASs were bidirectional (±50%). Marked from “not at all” on the left (−50), to “normal” in the middle (0), to “extremely” on the right (+50).
The criterion for significance was p<0.05.

Where [4] appears, read: escitalopram 14 days pretreatment vs placebo.
Where [5] appears, read: escitalopram pretreatment compared to psilocybin alone (summary).
The mark [6] stands for this setting: escitalopram pretreatment compared with placebo pretreatment (summary).
Where [7] appears, read: escitalopram 14 days pretreatment vs placebo, P=0.004.

With `CN(C)CCC[C@@]1(c2ccc(F)cc2)OCc2cc(C#N)ccc21` [Escitalopram, escitalopram], the “peak plasma concentrations (mean, range)” value in data set [1] (after 14 days escitalopram (10 mg 7 days, 20 mg 7 days)) is reported as 41 (35-53) ng/mL. Besides, in data set [1] (setting [4]), the “effect on the pharmacokinetics of 4-HIAA” value is “did not relevantly or significantly alter”, the “effect on the pharmacokinetics of psilocin” value is listed as “did not relevantly or significantly alter” and the “effect on the pharmacokinetics of psilocin glucuronide” value is given as “did not relevantly or significantly alter”. Also, the concentration at 14 days in data set [1] (after 14 days escitalopram (10 mg 7 days, 20 mg 7 days), read-out: plasma concentrations (mean, range)) came to 41 ng/mL. Further, the concentration at 14 days in data set [1] (after 14 days escitalopram, described as high, read-out: plasma concentrations in all subjects) was less than 35 ng/mL. The “effect on psilocybin-induced elevations in peak systolic blood pressure” value with healthy subjects [2] (escitalopram 14 days pretreatment vs placebo, P<0.001) is on record as “reduced”. The “effect on psilocybin-induced elevations in rate pressure product” value in the data set with healthy subjects [2] (escitalopram 14 days pretreatment vs placebo, P=0.001) is recorded as “reduced”. Also, in the data set on healthy subjects [2] (escitalopram 14 days pretreatment vs placebo, P=0.002), the “effect on psilocybin-induced pupil dilation” value is listed as “reduced”. Further, the “effect on psilocybin-induced elevations in peak diastolic blood pressure” value in the data set with healthy subjects [2] (escitalopram 14 days pretreatment vs placebo, P=0.017) is “reduced”. Besides, the “effect on psilocybin-induced cardio-stimulant effects” value in the data set with healthy subjects [2] (setting [5]) was “reduced”. The “effect on adverse autonomic effects of psilocybin” value in the data set with healthy subjects [2] (setting [6]) is given as “significantly reduced”. For the same compound, in the data set with healthy subjects [3] (setting [4]), the “effect on good drug effects of psilocybin” value is “did not significantly reduce”. Moreover, in the data set on healthy subjects [3] (setting [7]), the “reduction of peak anxiety induced by psilocybin” value is given as 50% and the “reduction of peak bad drug effects induced by psilocybin” value turned out to be 50%. The “effect on any drug effects in response to psilocybin” value in the data set with healthy subjects [3] (escitalopram 14 days pretreatment vs placebo, P=0.015) was “slightly, but significantly reduced”. Besides, the “effect on the response to psilocybin, overall” value in the data set with healthy subjects [3] (escitalopram pretreatment 14 days (10 mg 7 days, 20 mg 7 days) before 25 mg psilocybin, compared to placebo pretreatment) is listed as “only a small effect”. The “effect on psilocybin-induced fear” value with healthy subjects [3] (setting [5]) is “reduced”. Also, in the data set with healthy subjects [3] (setting [6]), the “effect on anxiety of psilocybin (in words)” value is listed as “significantly reduced”, the “effect on bad drug effects of psilocybin (in words)” value is “significantly reduced” and the “effect on the positive mood effects of psilocybin” value is reported as “no relevant effect”.

(Values after patent publication US11801256B2, “Antidepressant-psilocybin co-treatment to assist psychotherapy” (Universitätsspital Basel, priority 2021, dated 2023).)
